Data on 32 compounds can be found in patent publication US20250145633A1, “SUBSTITUTED FURANOPYRIMIDINE COMPOUNDS AS PDE1 INHIBITORS” (Dart NeuroScience, LLC, priority 2017, published 2025).

Molecules are shown by their SMILES.

The target of the first experiment is human PDE1B enzyme (Homo sapiens (Human), UniProt Q01064). Nature of the experiment: IMAP TR-FRET PDE1B enzymatic assay. Format: biochemical. To be noted: negative log of half-maximal molar inhibitory concentration; 200 nM FAM-cAMP; values given as bins. Summed up:
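Full-length GST-tagged human PDE1B (250 pg/well) in IMAP BSA buffer with 10 U/ml calmodulin and 2.5 mM CaCl2; compound pre-incubated 5 min at room temperature, then 200 nM (final) FAM-cAMP for 30 min. IMAP binding reagent/Tb added, 1 h; TR-FRET 520/490 ratio read. IC50 from sigmoidal dose-response fit.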
(Time-resolved FRET reads energy transfer from a long-lived donor to a nearby acceptor.)
`Cc1oc2ncnc(NC3(C)CC3)c2c1C(=O)NCc1ncc2c(n1)CCC2` [Example 648, N-{5H,6H,7H-Cyclopenta[d]pyrimidin-2-ylmethyl}-6-methyl-4-[(1-methylcyclopropyl)amino]furo[2,3-d]pyrimidine-5-carboxamide]: the “PDE1b (pIC50)” value is on record as greater than 8. On the same count and under the same terms, the same measure for `Cc1cc(C(F)(F)F)nc(CNC(=O)c2c(C)oc3ncnc(NC4(C)CC4)c23)n1` [Example 649, 6-Methyl-N-{[4-methyl-6-(trifluoromethyl)pyrimidin-2-yl]methyl}-4-[(1-methylcyclopropyl)amino]furo[2,3-d]pyrimidine-5-carboxamide]: greater than 8.

The experiment is the same for the next values; noted with them: negative log of half-maximal molar inhibitory concentration; 200 nM FAM-cAMP; values given as bins; read-out: PDE1b (pIC50) (converted).
Turning to `Cc1cn2c(n1)CN(C(=O)c1c(C)oc3ncnc(NC4(C)CC4)c13)CC2` [Example 633, 6-Methyl-5-{2-methyl-5H,6H,7H,8H-imidazo[1,2-a]pyrazine-7-carbonyl}-N-(1-methylcyclopropyl)furo[2,3-d]pyrimidin-4-amine], the IC50 is 0.1 to 1 µM.

Take `COc1cc2c(cn1)CN(C(=O)c1c(C)oc3ncnc(NC4(C)CC4)c13)CC2` [Example 634, 5-(6-Methoxy-1,2,3,4-tetrahydro-2,7-naphthyridine-2-carbonyl)-6-methyl-N-(1-methylcyclopropyl)furo[2,3-d]pyrimidin-4-amine]: the IC50 is 0.01 to 0.1 µM. With `COc1ccc2c(n1)CCN(C(=O)c1c(C)oc3ncnc(NC4(C)CC4)c13)C2` [Example 635, 5-(2-Methoxy-5,6,7,8-tetrahydro-1,6-naphthyridine-6-carbonyl)-6-methyl-N-(1-methylcyclopropyl)furo[2,3-d]pyrimidin-4-amine], the IC50 was 0.01 to 0.1 µM. Still for that read-out and setting: the result for `Cc1oc2ncnc(NC3(C)CC3)c2c1C(=O)N1CCn2nc(C#N)cc2C1` [Example 636, 5-{6-Methyl-4-[(1-methylcyclopropyl)amino]furo[2,3-d]pyrimidine-5-carbonyl}-4H,5H,6H,7H-pyrazolo[1,5-a]pyrazine-2-carbonitrile] reads 0.1 to 1 µM. Same read-out and setting: the same measure for `Cc1oc2ncnc(NC3(C)CC3)c2c1C(=O)N1CCc2ccncc2C1` [Example 637, 6-Methyl-N-(1-methylcyclopropyl)-5-(1,2,3,4-tetrahydro-2 7-naphthyridine-2-carbonyl)furo[2,3-d]pyrimidin-4-amine]: 0.1 to 1 µM; for `Cc1oc2ncnc(NC3(C)CC3)c2c1C(=O)N1CCn2c(C(F)(F)F)nc(C3CCOCC3)c2C1` [Example 638, 6-Methyl-N-(1-methylcyclopropyl)-5-[1-(oxan-4-yl)-3-(trifluoromethyl)-5H,6H,7H,8H-imidazo[1,5-a]pyrazine-7-carbonyl]furo[2,3-d]pyrimidin-4-amine]: 0.1 to 1 µM; for `Cc1oc2ncnc(NC3(C)CC3)c2c1C(=O)N1CCn2c(C)nc(C3CCOCC3)c2C1` [Example 639, 6-Methyl-5-[3-methyl-1-(oxan-4-yl)-5H,6H,7H,8H-imidazo[1,5-a]pyrazine-7-carbonyl]-N-(1-methylcyclopropyl)furo[2,3-d]pyrimidin-4-amine]: 0.1 to 1 µM. The same measure, in the same setting: the same measure for `Cc1oc2ncnc(NC3(C)CC3)c2c1C(=O)N1CCn2cncc2C1` [Example 640, 5-{5H,6H,7H,8H-Imidazo[1,5-a]pyrazine-7-carbonyl}-6-methyl-N-(1-methylcyclopropyl)furo[2,3-d]pyrimidin-4-amine]: 0.1 to 1 µM; for `Cc1oc2ncnc(NC3(C)CC3)c2c1C(=O)N1CCn2ncc(Br)c2C1` [Example 641, 5-{3-Bromo-4H,5H,6H,7H-pyrazolo[1,5-a]pyrazine-5-carbonyl}-6-methyl-N-(1-methylcyclopropyl)furo[2,3-d]pyrimidin-4-amine]: 0.1 to 1 µM. As to `Cc1oc2ncnc(NC3(C)CC3)c2c1C(=O)N1CCc2cc(Cl)ncc2C1` [Example 642, 5-(6-Chloro-1,2,3,4-tetrahydro-2,7-naphthyridine-2-carbonyl)-6-methyl-N-(1-methylcyclopropyl)furo[2,3-d]pyrimidin-4-amine], the IC50 was 0.01 to 0.1 µM. The same measure, in the same setting: the same measure for `CON(C)C(=O)c1c(C)oc2ncnc(NC3(C)CC3)c12` [Example 643, N-Methoxy-N,6-dimethyl-4-[(1-methylcyclopropyl)amino]furo[2,3-d]pyrimidine-5-carboxamide]: 0.1 to 1 µM; for `Cc1oc2ncnc(NC3(C)CC3)c2c1C(=O)NCc1ccnc(C(C)C)n1` [Example 644, 6-Methyl-4-[(1-methylcyclopropyl)amino]-N-{[2-(propan-2-yl)pyrimidin-4-yl]methyl}furo[2,3-d]pyrimidine-5-carboxamide]: 0.01 to 0.1 µM. Regarding `Cc1oc2ncnc(NC3(C)CC3)c2c1C(=O)Nc1cnn(C2CC2)c1` [Example 645, N-(1-Cyclopropyl-1H-pyrazol-4-yl)-6-methyl-4-[(1-methylcyclopropyl)amino]furo[2,3-d]pyrimidine-5-carboxamide], the IC50 is 0.01 to 0.1 µM.

As for `Cc1oc2ncnc(NC3(C)CC3)c2c1C(=O)NCc1cnn(C)c1` [Example 646, 6-Methyl-N-[(1-methyl-1H-pyrazol-4-yl)methyl]-4-[(1-methylcyclopropyl)amino]furo[2,3-d]pyrimidine-5-carboxamide], the IC50 is 0.01 to 0.1 µM. The same measure, in the same setting: the result for `Cc1oc2ncnc(NC3(C)CC3)c2c1C(=O)NCc1cncnc1` [Example 647, 6-Methyl-4-[(1-methylcyclopropyl)amino]-N-(pyrimidin-5-ylmethyl)furo[2,3-d]pyrimidine-5-carboxamide] reads 0.1 to 1 µM; that for `Cc1oc2ncnc(NC3(C)CC3)c2c1C(=O)NC1CCN(c2ccccn2)CC1` [Example 650, 6-Methyl-4-[(1-methylcyclopropyl)amino]-N-[1-(pyridin-2-yl)piperidin-4-yl]furo[2,3-d]pyrimidine-5-carboxamide], 0.01 to 0.1 µM; that for `Cc1nc2cc(NC(=O)c3c(C)oc4ncnc(NC5(C)CC5)c34)ccc2o1` [Example 651, 6-Methyl-N-(2-methyl-1,3-benzoxazol-5-yl)-4-[(1-methylcyclopropyl)amino]furo[2,3-d]pyrimidine-5-carboxamide], 0.01 to 0.1 µM. On the same count and under the same terms, the result for `Cc1oc2ncnc(NC3(C)CC3)c2c1C(=O)NCc1ccncn1` [Example 652, 6-Methyl-4-[(1-methylcyclopropyl)amino]-N-(pyrimidin-4-ylmethyl)furo[2,3-d]pyrimidine-5-carboxamide] reads 0.01 to 0.1 µM; that for `Cc1oc2ncnc(NC3(C)CC3)c2c1C(=O)NCc1ncccn1` [Example 653, 6-Methyl-4-[(1-methylcyclopropyl)amino]-N-(pyrimidin-2-ylmethyl)furo[2,3-d]pyrimidine-5-carboxamide], 0.01 to 0.1 µM; that for `Cc1cc(CNC(=O)c2c(C)oc3ncnc(NC4(C)CC4)c23)ncn1` [Example 654, 6-Methyl-4-[(1-methylcyclopropyl)amino]-N-[(6-methylpyrimidin-4-yl)methyl]furo[2,3-d]pyrimidine-5-carboxamide], 0.01 to 0.1 µM. The same measure, in the same setting: the result for `Cc1oc2ncnc(NC3(C)CC3)c2c1C(=O)Nc1ccc(N2CCOCC2)cc1` [Example 655, 6-Methyl-4-[(1-methylcyclopropyl)amino]-N-[4-(morpholin-4-yl)phenyl]furo[2,3-d]pyrimidine-5-carboxamide] reads 0.01 to 0.1 µM; that for `Cc1oc2ncnc(NC3(C)CC3)c2c1C(=O)Nc1ccc(N2CCOCC2)nn1` [Example 656, 6-Methyl-4-[(1-methylcyclopropyl)amino]-N-[6-(morpholin-4-yl)pyridazin-3-yl]furo[2,3-d]pyrimidine-5-carboxamide], 0.1 to 1 µM; that for `Cc1oc2ncnc(NC3(C)CC3)c2c1C(=O)Nc1cnc(N2CCOCC2)nc1` [Example 657, 6-Methyl-4-[(1-methylcyclopropyl)amino]-N-[2-(morpholin-4-yl)pyrimidin-5-yl]furo[2,3-d]pyrimidine-5-carboxamide], 0.01 to 0.1 µM. As for `Cc1oc2ncnc(NC3(C)CC3)c2c1C(=O)Nc1cnc(N2CCOCC2)cn1` [Example 658, 6-Methyl-4-[(1-methylcyclopropyl)amino]-N-[5-(morpholin-4-yl)pyrazin-2-yl]furo[2,3-d]pyrimidine-5-carboxamide], the IC50 is 0.01 to 0.1 µM. As for `Cc1ncncc1CNC(=O)c1c(C)oc2ncnc(NC3(C)CC3)c12` [Example 659, 6-Methyl-4-[(1-methylcyclopropyl)amino]-N-[(4-methylpyrimidin-5-yl)methyl]furo[2,3-d]pyrimidine-5-carboxamide], the IC50 is 0.01 to 0.1 µM. Take `Cc1oc2ncnc(NC3(C)CC3)c2c1C(=O)NC1CCN(c2cnccn2)CC1` [Example 660, 6-Methyl-4-[(1-methylcyclopropyl)amino]-N-[1-(pyrazin-2-yl)piperidin-4-yl]furo[2,3-d]pyrimidine-5-carboxamide]: the IC50 is 0.01 to 0.1 µM.

Turning to `Cc1oc2ncnc(NC3(C)CC3)c2c1C(=O)NCc1cc(=O)[nH]cn1` [Example 661, 6-Methyl-4-[(1-methylcyclopropyl)amino]-N-[(6-oxo-1,6-dihydropyrimidin-4-yl)methyl]furo[2,3-d]pyrimidine-5-carboxamide], the IC50 was 0.01 to 0.1 µM. Same read-out and setting: the result for `Cc1nc(CNC(=O)c2c(C)oc3ncnc(NC4(C)CC4)c23)cc(=O)[nH]1` [Example 662, 6-Methyl-N-[(2-methyl-6-oxo-1,6-dihydropyrimidin-4-yl)methyl]-4-[(1-methylcyclopropyl)amino]furo[2,3-d]pyrimidine-5-carboxamide] reads 0.01 to 0.1 µM; that for `COc1ncnc2c1CN(C(=O)c1c(C)oc3ncnc(NC4(C)CC4)c13)CC2` [Example 663, 5-{4-Methoxy-5H,6H,7H,8H-pyrido[4,3-d]pyrimidine-6-carbonyl}-6-methyl-N-(1-methylcyclopropyl)furo[2,3-d]pyrimidin-4-amine], 0.1 to 1 µM; that for `Cc1oc2ncnc(NC3(C)CC3)c2c1C(=O)NCc1ncc(C(C)C)o1` [Example 664, 6-Methyl-4-[(1-methylcyclopropyl)amino]-N-{[5-(propan-2-yl)-1,3-oxazol-2-yl]methyl}furo[2,3-d]pyrimidine-5-carboxamide], 0.01 to 0.1 µM.
